Legend:
2,3-DPG blood levels = experiment: Phase 1: blood 2,3-DPG levels in healthy volunteers (LC-MS/MS); assay type: in vivo, human; conditions: for Mean maximum percent change from baseline in 2,3-DPG: all doses and timepoints
Method: In this study, SAD/MAD cohorts are randomized (3 to 1) to receive Compound 1 or placebo (P). Compound 1 was evaluated first in 4 healthy SAD cohorts and 4 healthy MAD (14-day dosing period) cohorts. Based on the safety, and PK/PD profile from HS, Compound 1 is then evaluated in 1 SCD SAD cohort and 2 SCD MAD cohorts. Specifically, based on the safety and pharmacokinetic/pharmacodynamics (PK/PD) profile in healthy volunteer studies, Compound 1 is evaluated in patients (pts) with SCD, first in a single dose (SD or SAD) cohort and then in multiple-dose (MD or MAD) cohorts (14-day and 12-week). Safety assessments include AEs, vital signs, ECGs and laboratory parameters. PK/PD blood sampling was performed on Day 1 (SAD/MAD) and Day 14 (MAD) and up to 72 h after the last dose and at the end-of-study visit. PD parameters included 2,3-DPG, ATP, and p50 in all cohorts with additional PD studies (including oxygen scan) performed only in the SCD cohorts. PD parameters included 2,3-DPG, ATP, p50, RBC deformability with controlled deoxygenation and reoxygenation (Lorrca® oxygen scan) and varying osmolality (Lorrca® osmoscan)). To maintain study blind, pt identifiers were removed when needed.
In the SAD cohorts, the subjects' blood 2,3-DPG levels were measured periodically after dosing by a qualified LC-MS/MS method for the quantitation of 2,3-DPG in blood. Decreased 2,3-DPG blood levels were observed 6 hours following a single dose of Compound 1 at all dose levels (earlier timepoints were not collected). Maximum decreases in 2,3-DPG levels generally occurred ˜24 hours after the first dose with the reduction sustained ˜48-72 hr postdose. Table 15 reports the median percentage change in 2,3-DPG blood levels, relative to baseline, measured over time in healthy volunteers after a single dose of Compound 1 (200 mg, 400 mg, 700 mg, or 1000 mg) or placebo. Table 16 reports the mean percentage change in 2,3-DPG blood levels, relative to baseline, measured over time in healthy volunteers after a single dose of Compound 1 (200 mg, 400 mg, 700 mg, or 1000 mg). Accordingly, the median and mean reduction in the concentration of 2,3-DPG, relative to baseline, was at least about 30% at all dose levels tested 24 hours after administration of the single dose.
In the MAD cohorts, the subjects' blood 2,3-DPG levels were measured periodically after dosing by a qualified LC-MS/MS method for the quantitation of 2,3-DPG in blood. The maximum decrease in 2,3-DPG on Day 14 was 55% from baseline (median). […] Table 18A reports the median percentage change in 2,3-DPG blood levels, relative to baseline, measured over time after the first dose on days 1 and 14 in healthy volunteers who received daily doses of Compound 1 (100 mg BID, 200 mg BID, or 300 mg BID) or placebo for 14 days. Table 18B reports the mean percentage change in 2,3-DPG blood levels, relative to baseline, measured over time after the first dose on days 1 and 14 in healthy volunteers who received daily doses of Compound 1 (100 mg BID, 200 mg BID, 300 mg BID, or 400 mg QD) for 14 days. Accordingly, the median and mean reduction in the concentration of 2,3-DPG, relative to baseline, was at least about 25% at all dose levels tested 24 hours after administration of the first dose on day 1 and at least about 40% at all dose levels tested 24 hours after administration of the first dose on day 14.
The following procedures are employed for the analysis of ATP and 2,3-DPG in human whole blood K2EDTA using a protein precipitation extraction procedure and analysis by LC-MS/MS.
The following procedures are used for sample extraction prior to analysis via LC-MS/MS. 15.0 μL of the calibration standards, quality controls, matrix blanks, and samples are aliquoted into a 96-well plate. 50.0 μL of the internal standard spiking solution is added to all samples on the plate, with the exception of the matrix blank samples; 50.0 μL of water is added to the matrix blank samples. […]

[1] = Phase 1: safety, adverse events in SCD patients; assay type: in vivo, human
Method: All SCD patients who received a single 700 mg dose of Compound 1 or placebo were monitored for adverse events for 7 days. The incidence of treatment emergent adverse events (TEAEs) in SCD patients receiving Compound 1 (700 mg) or placebo are reported in Table 23. Six TEAEs were reported in 4 patients; all TEAEs were grade 1 and transient. Specifically, six TEAEs were reported in 4 of 7 (57%) patients, including 3 TEAEs (arthralgia, headache, palpitations) in 2 of 5 (40%) pts receiving Compound 1 and 3 TEAEs (back pain, myalgia, pruritis) in 2 of 2 (100%) pts receiving placebo; all TEAEs were grade 1 and transient. […] One possibly related TEAE (palpitations) occurred about 8 hours post dose. No other symptoms were observed, and the palpitations resolved in <1 minute. […] The single 700 mg dose of Compound 1 was considered tolerable, and the first multiple dose SCD cohort was initiated.
Based on data from the MAD1 (300 mg once daily for 14 days), Compound 1 is well-tolerated in patients with SCD. In all, eighteen TEAEs were reported in 7 of 9 patients in the MAD1 (300 mg once daily) cohort (N=9). These included (a) eight Grade 1 TEAEs, including 3 patients c/o headache, 1 each of nausea, constipation, somnolence, increased LDH and increased AST, of which two AEs considered to be possibly related to study treatment were reported by one patient each (1 AE of headache and 1 AE of nausea); (b) six Grade 2 TEAEs, including 3 uncomplicated sickle pain events (in 2 patients), 1 patient with N/V and 1 increased reticulocytes, of which no AEs were considered related to study treatment, all AEs of pain events were considered unrelated and consistent with each patient's SCD pain history, and all AEs were treated with patient's standard home pain medications (no SAE/no hospitalization); and (c) one Grade 4 TEAE of elevated creatine kinase, unrelated to study treatment. Non-treatment-related AEs were consistent with events experienced in this patient population. No treatment-related serious AEs were reported.

[2] = SCD MAD1, 300 mg × 14 days, n = 7

SMILES: O=C([C@H](CO)c1ccccc1)N1CC2=C(C1)CN(S(=O)(=O)c1cnc3c(c1)OCCO3)C2 (single isomer, unassigned) [Compound 1]
- maximum decrease in 2,3-DPG on Day 14 from baseline (median) (2,3-DPG blood levels; HV MAD cohorts): 55%
- median and mean reduction of 2,3-DPG relative to baseline (2,3-DPG blood levels; HV MAD, all dose levels, 24 hours after first dose on day 1): at least 25%
- median and mean reduction of 2,3-DPG relative to baseline (2,3-DPG blood levels; HV MAD, all dose levels, 24 hours after first dose on day 14): at least 40%
- Mean maximum percent change from baseline in 2,3-DPG (2,3-DPG blood levels; HV MAD, N = 36): −56.3%
- Mean maximum percent change from baseline in 2,3-DPG (2,3-DPG blood levels; HV SAD, N = 24): −46.8%
- median and mean reduction of 2,3-DPG relative to baseline (2,3-DPG blood levels; HV, all single dose levels, 24 hours after dose): at least 30%
- lag of maximum 2,3-DPG decrease behind maximum plasma concentration (2,3-DPG blood levels; HV, single 200-1000 mg dose): about 24 hours
- Median percentage change in 2,3-DPG levels (2,3-DPG blood levels; HV, single dose 200 mg, 0 h after dose): 0.0%
- Median percentage change in 2,3-DPG levels (2,3-DPG blood levels; HV, single dose 200 mg, 8 h after dose): −17%
- Median percentage change in 2,3-DPG levels (2,3-DPG blood levels; HV, single dose 200 mg, 48 h after dose): −29%
- Median percentage change in 2,3-DPG levels (2,3-DPG blood levels; HV, single dose 400 mg, 0 h after dose): 0.0%
- Median percentage change in 2,3-DPG levels (2,3-DPG blood levels; HV, single dose 400 mg, 8 h after dose): −29%
- Median percentage change in 2,3-DPG levels (2,3-DPG blood levels; HV, single dose 400 mg, 72 h after dose): −30%
- Median percentage change in 2,3-DPG levels (2,3-DPG blood levels; HV, single dose 700 mg, 0 h after dose): 0.0%
- Median percentage change in 2,3-DPG levels (2,3-DPG blood levels; HV, single dose 700 mg, 6 h after dose): −29%
- Median percentage change in 2,3-DPG levels (2,3-DPG blood levels; HV, single dose 700 mg, 16 h after dose): −46%
- Median percentage change in 2,3-DPG levels (2,3-DPG blood levels; HV, single dose 700 mg, 36 h after dose): −46%
- Median percentage change in 2,3-DPG levels (2,3-DPG blood levels; HV, single dose 1000 mg, 36 h after dose): −47%
- Any serious adverse event (SAE), n (%) [1, 2]: 0 n (%)
- TEAE related to study drug, n (%) [1, 2]: 2 (29%) n (%)
- serious adverse events or TEAEs leading to withdrawal ([1]; SCD single dose cohort): No serious adverse events (SAEs) or TEAEs leading to pt withdrawal
- Any TEAE, n (%) ([1]; SCD, single dose 700 mg, N = 5): 2 (40) n (%)
- TEAE related to study drug, n (%) ([1]; SCD, single dose 700 mg, N = 5): 1 (20) n (%)
